Columns and labels:
[1] = xn = mol fraction of the nth substance listed; settings: 101.33 kPa, Liquid; for speed of sound: acoustic time of flight gauge
[2] = 101.33 kPa, Liquid; for speed of sound: acoustic time of flight gauge

CCCCCO [pentan-1-ol] + [2H]C([2H])([2H])[N+](=O)[O-]
[1], x2 = 0
Settings	mass density [kg/m3]	viscosity [mPa·s]
303.5 K	807.33	2.997
307.5 K	803.76	2.57

[2H]C([2H])([2H])[N+](=O)[O-] [deuteronitromethane] + CCCCCO
[1]
Settings	mass density, 303.5 K [kg/m3]	mass density, 307.5 K [kg/m3]	viscosity, 303.5 K [mPa·s]	viscosity, 307.5 K [mPa·s]
x1 = 0.08	823.07	819.05	–	–
x1 = 0.103	–	–	2.46	2.158
x1 = 0.178	843.08	838.92	–	–
x1 = 0.206	–	–	2.16	1.82
x1 = 0.245	858.21	853.8	–	–
x1 = 0.302	–	–	1.796	1.517
x1 = 0.351	883.03	878.4	–	–
x1 = 0.401	896.26	891.53	–	–
x1 = 0.418	–	–	1.447	1.251
x1 = 0.49	922.6	917.6	–	–
x1 = 0.502	–	–	1.24	1.077
x1 = 0.598	–	–	1.069	0.9159
x1 = 0.615	966.2	960.5	1.033	0.8939
x1 = 0.644	–	–	1.026	0.8578
x1 = 0.669	988.3	982.16	–	–
x1 = 0.749	1024.62	1018.46	–	–
x1 = 0.758	–	–	0.7821	0.7064
x1 = 0.801	–	–	0.7859	0.6878
x1 = 0.86	1084.42	1077.9	–	–
x1 = 0.904	–	–	0.6496	0.5971
x1 = 0.959	1149.88	1142.39	–	–
x1 = 1	1180.03	1172.08	0.6274	0.5819

[2H]OCCCCC [pentan-1-ol-d] + C[N+](=O)[O-]
[1]
Settings	mass density, 301.3 K [kg/m3]	mass density, 306.3 K [kg/m3]	viscosity, 301.3 K [mPa·s]	viscosity, 306.3 K [mPa·s]
x2 = 0	815.63	811.88	3.118	2.685
x2 = 0.07	825.73	821.85	–	–
x2 = 0.106	–	–	2.465	2.186
x2 = 0.154	839.37	835.21	–	–
x2 = 0.231	852.09	847.81	–	–
x2 = 0.245	–	–	1.937	1.678
x2 = 0.298	862.5	858.1	–	–
x2 = 0.385	879.49	873.8	–	–
x2 = 0.386	–	–	1.497	1.319
x2 = 0.503	906.93	904.01	–	–
x2 = 0.508	–	–	1.161	1.066
x2 = 0.551	920.64	917.49	–	–
x2 = 0.555	–	–	1.097	0.9975
x2 = 0.623	–	–	1.004	0.8782
x2 = 0.651	954.06	950.15	–	–
x2 = 0.679	–	–	0.9207	0.7937
x2 = 0.718	–	–	0.8419	0.729
x2 = 0.74	989.43	983.56	–	–
x2 = 0.749	–	–	0.7878	0.6974
x2 = 0.774	–	–	0.7451	0.6734
x2 = 0.847	1037.27	1031.12	–	–
x2 = 0.946	1090.5	1083.88	–	–

C[N+](=O)[O-] [nitromethane] + CCCCCO
[1]
Settings	mass density [kg/m3]	speed of sound [m/s]	viscosity [mPa·s]
301.15 K, x1 = 0.065	818.89	–	–
301.15 K, x1 = 0.099	–	1258.1	–
301.15 K, x1 = 0.113	–	–	2.379
301.15 K, x1 = 0.127	828.49	–	–
301.15 K, x1 = 0.186	838.83	–	–
301.15 K, x1 = 0.202	–	1252.1	–
301.15 K, x1 = 0.203	–	–	2.119
301.15 K, x1 = 0.26	852.95	–	–
301.15 K, x1 = 0.302	–	1248.3	–
301.15 K, x1 = 0.31	863.38	–	–
301.15 K, x1 = 0.314	–	–	1.743
301.15 K, x1 = 0.398	883.3	–	1.487
301.15 K, x1 = 0.401	–	1245.4	–
301.15 K, x1 = 0.469	–	–	1.231
301.15 K, x1 = 0.502	–	1242.7	–
301.15 K, x1 = 0.503	910.3	–	–
301.15 K, x1 = 0.516	–	–	1.111
301.15 K, x1 = 0.54	920.98	–	–
301.15 K, x1 = 0.616	944.27	–	–
301.15 K, x1 = 0.619	–	1243.9	–
301.15 K, x1 = 0.62	–	–	0.9425
301.15 K, x1 = 0.699	973.7	–	–
301.15 K, x1 = 0.701	–	1247	–
301.15 K, x1 = 0.752	–	–	0.7812
301.15 K, x1 = 0.753	994.05	–	–
301.15 K, x1 = 0.801	–	–	0.7348
301.15 K, x1 = 0.802	1016.76	1258.9	–
301.15 K, x1 = 0.824	–	–	0.679
301.15 K, x1 = 0.849	–	–	0.673
301.15 K, x1 = 0.902	–	1281.2	–
301.15 K, x1 = 0.911	1070.91	–	–
301.15 K, x1 = 0.934	–	–	0.6149
301.15 K, x1 = 1	1126.24	1305.3	0.6091
306.15 K, x1 = 0.065	815.14	–	–
306.15 K, x1 = 0.099	–	1240.6	–
306.15 K, x1 = 0.113	–	–	2.009
306.15 K, x1 = 0.127	824.47	–	–
306.15 K, x1 = 0.186	834.67	–	–
306.15 K, x1 = 0.202	–	1234.6	–
306.15 K, x1 = 0.203	–	–	1.744
306.15 K, x1 = 0.26	848.61	–	–
306.15 K, x1 = 0.302	–	1230.6	–
306.15 K, x1 = 0.31	858.74	–	–
306.15 K, x1 = 0.314	–	–	1.473
306.15 K, x1 = 0.398	878.5	–	1.282
306.15 K, x1 = 0.401	–	1227.7	–
306.15 K, x1 = 0.469	–	–	1.093
306.15 K, x1 = 0.502	–	1225.5	–
306.15 K, x1 = 0.503	905.13	–	–
306.15 K, x1 = 0.516	–	–	0.9447
306.15 K, x1 = 0.54	915.83	–	–
306.15 K, x1 = 0.616	939	–	–
306.15 K, x1 = 0.619	–	1226.6	–
306.15 K, x1 = 0.62	–	–	0.7854
306.15 K, x1 = 0.699	967.99	–	–
306.15 K, x1 = 0.701	–	1230.2	–
306.15 K, x1 = 0.752	–	–	0.6945
306.15 K, x1 = 0.753	987.94	–	–
306.15 K, x1 = 0.801	–	–	0.6634
306.15 K, x1 = 0.802	1010.21	1241.7	–
306.15 K, x1 = 0.824	–	–	0.6288
306.15 K, x1 = 0.849	–	–	0.6161
306.15 K, x1 = 0.902	–	1262.1	–
306.15 K, x1 = 0.911	1064.52	–	–
306.15 K, x1 = 0.934	–	–	0.5661
306.15 K, x1 = 1	1119.36	1285.2	0.5636

CCCCCO [pentan-1-ol]
[2]
Settings	mass density [kg/m3]	speed of sound [m/s]	viscosity [mPa·s]
293.15 K	815.09	1290.7	–
295.15 K	812.74	1282.1	–
298.15 K	811.4	1273.6	–
300.15 K	809.72	1266.7	–
301.15 K	808.96	1263.3	3.113
303.15 K	807.41	1256.4	–
303.5 K	807.33	–	2.997
305.15 K	805.78	1249.4	–
306.15 K	805.17	1246.2	2.686
307.5 K	803.76	–	2.57
308.15 K	803.71	1239.3	–

[2], Capillary tube (Ostwald / Ubbelohde) method
Settings	kinematic viscosity [m2/s]
293.15 K	4.96e-06
295.15 K	4.444e-06
298.15 K	4.223e-06
300.15 K	3.942e-06
303.15 K	3.635e-06
305.15 K	3.45e-06
308.15 K	3.129e-06

C[N+](=O)[O-] [nitromethane]
[2]
Settings	kinematic viscosity [m2/s]	mass density [kg/m3]	speed of sound [m/s]	viscosity [mPa·s]
293.15 K	6.01e-07	1137.21	1337.6	–
295.15 K	5.77e-07	1133.14	1329.5	–
298.15 K	5.62e-07	1130.42	1317.4	–
300.15 K	5.47e-07	1127.55	1309.4	–
301.15 K	–	1126.24	1305.3	0.6091
301.3 K	–	1126.04	–	0.6074
303.15 K	5.25e-07	1123.49	1297.3	–
305.15 K	5.1e-07	1120.82	1289.2	–
306.15 K	–	1119.36	1285.2	0.5636
306.3 K	–	1119.15	–	0.5623
308.15 K	4.89e-07	1116.54	1277.1	–

[2H]C([2H])([2H])[N+](=O)[O-] [deuteronitromethane]
[2]
Settings	kinematic viscosity [m2/s]	mass density [kg/m3]	speed of sound [m/s]	viscosity [mPa·s]
293.15 K	6.05e-07	1194.74	1291.1	–
295.15 K	5.81e-07	1190.43	1283.2	–
298.15 K	5.7e-07	1187.71	1271.3	–
300.15 K	5.49e-07	1184.73	1263.3	–
303.15 K	5.26e-07	1181.86	1251.4	–
303.5 K	6.27e-07	1180.03	–	0.6274
305.15 K	5.13e-07	1178.3	1243.5	–
307.5 K	5.82e-07	1172.08	–	0.5819
308.15 K	4.92e-07	1173.28	1231.6	–

CCCCCO [pentan-1-ol] + C[N+](=O)[O-]
[1], x2 = 0
Settings	mass density [kg/m3]	speed of sound [m/s]	viscosity [mPa·s]
301.15 K	808.96	1263.3	3.113
306.15 K	805.17	1246.2	2.686

[2H]OCCCCC [pentan-1-ol-d]
[2]
Settings	mass density [kg/m3]	speed of sound [m/s]	viscosity [mPa·s]
293.15 K	821.69	1282.3	–
295.15 K	819.5	1273.7	–
298.15 K	818.04	1265.1	–
300.15 K	816.42	1258.3	–
301.3 K	815.63	–	3.118
303.15 K	814.24	1248.5	–
305.15 K	813.1	1241.1	–
306.3 K	811.88	–	2.685
308.15 K	810.47	1230.8	–

[2], Capillary tube (Ostwald / Ubbelohde) method
Settings	kinematic viscosity [m2/s]
293.15 K	4.99e-06
295.15 K	4.458e-06
298.15 K	4.238e-06
300.15 K	3.969e-06
303.15 K	3.685e-06
305.15 K	3.456e-06
308.15 K	3.148e-06

C[N+](=O)[O-] [nitromethane] + [2H]OCCCCC
[1], x1 = 1
Settings	mass density [kg/m3]	viscosity [mPa·s]
301.3 K	1126.04	0.6074
306.3 K	1119.15	0.5623
